From PubChem BioAssay (NCI)
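Growth conditions: 96-well plates. Treatment: test compound, 48 hours, 5 concentrations. Analysis: linear interpolation between bracketing concentrations; unreached endpoints set to highest concentration. TGI marks complete inhibition of growth.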

Experiments:
Assay in all cases: NCI-60 cell line screen, 48 h
786-0 renal = test system: 786-0 renal
A498 renal = test system: A498 renal
A549 NSCLC = test system: A549 NSCLC
ACHN renal = test system: ACHN renal
BT-549 breast = test system: BT-549 breast
CAKI-1 renal = test system: CAKI-1 renal
CCRF-CEM leukemia = test system: CCRF-CEM leukemia
COLO 205 colon = test system: COLO 205 colon
EKVX NSCLC = test system: EKVX NSCLC
HCC-2998 colon = test system: HCC-2998 colon
HCT-116 colon = test system: HCT-116 colon
HCT-15 colon = test system: HCT-15 colon
HL-60(TB) leukemia = test system: HL-60(TB) leukemia
HOP-62 NSCLC = test system: HOP-62 NSCLC
HOP-92 NSCLC = test system: HOP-92 NSCLC
HS 578T breast = test system: HS 578T breast
HT29 colon = test system: HT29 colon
IGROV1 ovarian = test system: IGROV1 ovarian
K-562 leukemia = test system: K-562 leukemia
LOX IMVI melanoma = test system: LOX IMVI melanoma
M14 melanoma = test system: M14 melanoma
MALME-3M melanoma = test system: MALME-3M melanoma
MCF7 breast = test system: MCF7 breast
MDA-MB-231 breast = test system: MDA-MB-231 breast
MDA-MB-435 = test system: MDA-MB-435
MDA-N = test system: MDA-N
MOLT-4 leukemia = test system: MOLT-4 leukemia
NCI-H226 lung = test system: NCI-H226 lung
NCI-H23 lung = test system: NCI-H23 lung
NCI-H460 lung = test system: NCI-H460 lung
NCI-H522 lung = test system: NCI-H522 lung
NCI/ADR-RES ovarian = test system: NCI/ADR-RES ovarian
OVCAR-3 ovarian = test system: OVCAR-3 ovarian
OVCAR-4 ovarian = test system: OVCAR-4 ovarian
OVCAR-5 ovarian = test system: OVCAR-5 ovarian
OVCAR-8 ovarian = test system: OVCAR-8 ovarian
PC-3 prostate = test system: PC-3 prostate
RPMI-8226 leukemia = test system: RPMI-8226 leukemia
RXF 393 renal = test system: RXF 393 renal
SF-295 CNS = test system: SF-295 CNS
SF-539 CNS = test system: SF-539 CNS
SK-MEL-2 melanoma = test system: SK-MEL-2 melanoma
SK-MEL-28 melanoma = test system: SK-MEL-28 melanoma
SK-MEL-5 melanoma = test system: SK-MEL-5 melanoma
SK-OV-3 ovarian = test system: SK-OV-3 ovarian
SN12C renal = test system: SN12C renal
SNB-19 CNS = test system: SNB-19 CNS
SNB-75 CNS = test system: SNB-75 CNS
SR leukemia = test system: SR leukemia
SW-620 colon = test system: SW-620 colon
T-47D breast = test system: T-47D breast
TK-10 renal = test system: TK-10 renal
U251 CNS = test system: U251 CNS
UACC-257 melanoma = test system: UACC-257 melanoma
UACC-62 melanoma = test system: UACC-62 melanoma
UO-31 renal = test system: UO-31 renal
DU-145 prostate = test system: DU-145 prostate
KM12 colon = test system: KM12 colon

**Q.** With `O=c1[nH]/c(=C/c2ccc(OCc3ccccc3)cn2)c(=O)[nH]/c1=C/c1ccc(O)cc1` as the molecule, how does the TGI (786-0 renal) read?
**A.** 1450 nM

**Q.** What about the TGI (A498 renal) of the same molecule?
**A.** > 76.7 µM

**Q.** And the TGI (A549 NSCLC)?
**A.** > 53.5 µM

**Q.** What about the TGI (ACHN renal) of the same molecule?
**A.** > 100 µM

**Q.** What about the TGI (BT-549 breast) of the same molecule?
**A.** 8.63 µM

**Q.** What about the TGI (CAKI-1 renal) of the same molecule?
**A.** 3.08 µM

**Q.** And the TGI (CCRF-CEM leukemia)?
**A.** > 100 µM

**Q.** And the TGI (COLO 205 colon)?
**A.** 10.3 µM

**Q.** And the TGI (EKVX NSCLC)?
**A.** > 89.1 µM

**Q.** And the TGI (HCC-2998 colon)?
**A.** 5.21 µM

**Q.** And the TGI (HCT-116 colon)?
**A.** > 69.6 µM

**Q.** What about the TGI (HCT-15 colon) of the same molecule?
**A.** > 100 µM

**Q.** And the TGI (HL-60(TB) leukemia)?
**A.** 2870 nM

**Q.** What about the TGI (HOP-62 NSCLC) of the same molecule?
**A.** > 100 µM

**Q.** And the TGI (HOP-92 NSCLC)?
**A.** > 77.6 µM

**Q.** And the TGI (HS 578T breast)?
**A.** > 100 µM

**Q.** And the TGI (HT29 colon)?
**A.** > 100 µM

**Q.** And the TGI (IGROV1 ovarian)?
**A.** 13.4 µM

**Q.** And the TGI (K-562 leukemia)?
**A.** > 100 µM

**Q.** And the TGI (LOX IMVI melanoma)?
**A.** 1260 nM

**Q.** What about the TGI (M14 melanoma) of the same molecule?
**A.** 3.78 µM

**Q.** And the TGI (MALME-3M melanoma)?
**A.** 8.67 µM

**Q.** What about the TGI (MCF7 breast) of the same molecule?
**A.** > 100 µM

**Q.** What about the TGI (MDA-MB-231 breast) of the same molecule?
**A.** > 100 µM

**Q.** And the TGI (MDA-MB-435)?
**A.** 1640 nM

**Q.** And the TGI (MDA-N)?
**A.** 591 nM

**Q.** What about the TGI (MOLT-4 leukemia) of the same molecule?
**A.** 1650 nM

**Q.** What about the TGI (NCI-H226 lung) of the same molecule?
**A.** > 100 µM

**Q.** And the TGI (NCI-H23 lung)?
**A.** 5.44 µM

**Q.** And the TGI (NCI-H460 lung)?
**A.** > 100 µM

**Q.** What about the TGI (NCI-H522 lung) of the same molecule?
**A.** 806 nM

**Q.** What about the TGI (NCI/ADR-RES ovarian) of the same molecule?
**A.** 2090 nM

**Q.** What about the TGI (OVCAR-3 ovarian) of the same molecule?
**A.** > 76.3 µM

**Q.** And the TGI (OVCAR-4 ovarian)?
**A.** 590 nM

**Q.** And the TGI (OVCAR-5 ovarian)?
**A.** > 100 µM

**Q.** And the TGI (OVCAR-8 ovarian)?
**A.** > 32.4 µM

**Q.** What about the TGI (PC-3 prostate) of the same molecule?
**A.** > 100 µM

**Q.** And the TGI (RPMI-8226 leukemia)?
**A.** 9.95 µM

**Q.** What about the TGI (RXF 393 renal) of the same molecule?
**A.** 7.38 µM

**Q.** And the TGI (SF-295 CNS)?
**A.** > 100 µM

**Q.** What about the TGI (SF-539 CNS) of the same molecule?
**A.** 2090 nM

**Q.** And the TGI (SK-MEL-2 melanoma)?
**A.** > 46 µM

**Q.** And the TGI (SK-MEL-28 melanoma)?
**A.** > 100 µM

**Q.** And the TGI (SK-MEL-5 melanoma)?
**A.** 20.8 µM

**Q.** And the TGI (SK-OV-3 ovarian)?
**A.** > 100 µM

**Q.** What about the TGI (SN12C renal) of the same molecule?
**A.** 8.9 µM

**Q.** What about the TGI (SNB-19 CNS) of the same molecule?
**A.** > 100 µM

**Q.** What about the TGI (SNB-75 CNS) of the same molecule?
**A.** 3.05 µM

**Q.** What about the TGI (SR leukemia) of the same molecule?
**A.** 4.88 µM

**Q.** What about the TGI (SW-620 colon) of the same molecule?
**A.** > 100 µM

**Q.** And the TGI (T-47D breast)?
**A.** > 63.8 µM

**Q.** What about the TGI (TK-10 renal) of the same molecule?
**A.** 3.03 µM

**Q.** What about the TGI (U251 CNS) of the same molecule?
**A.** > 87.9 µM

**Q.** And the TGI (UACC-257 melanoma)?
**A.** > 100 µM

**Q.** What about the TGI (UACC-62 melanoma) of the same molecule?
**A.** > 100 µM

**Q.** And the TGI (UO-31 renal)?
**A.** 1400 nM

**Q.** Which TGI (786-0 renal) does the source give for `O=C(OCC1OC2OC(c3ccccc3)(n3ccc4c([N+](=O)[O-])ccnc43)OC2C1OC(=O)c1ccccc1)c1ccccc1` (centres undefined) here?
**A.** > 100000 nM

**Q.** What about the TGI (A498 renal) of the same molecule?
**A.** > 100 µM

**Q.** And the TGI (A549 NSCLC)?
**A.** > 100 µM

**Q.** And the TGI (ACHN renal)?
**A.** > 100 µM

**Q.** And the TGI (BT-549 breast)?
**A.** > 100 µM

**Q.** And the TGI (CAKI-1 renal)?
**A.** > 100 µM

**Q.** And the TGI (CCRF-CEM leukemia)?
**A.** > 100 µM

**Q.** What about the TGI (DU-145 prostate) of the same molecule?
**A.** > 100 µM

**Q.** And the TGI (EKVX NSCLC)?
**A.** > 100 µM

**Q.** And the TGI (HCC-2998 colon)?
**A.** > 100 µM

**Q.** What about the TGI (HCT-116 colon) of the same molecule?
**A.** > 100 µM

**Q.** And the TGI (HCT-15 colon)?
**A.** > 100 µM

**Q.** And the TGI (HL-60(TB) leukemia)?
**A.** > 100000 nM

**Q.** And the TGI (HOP-62 NSCLC)?
**A.** > 100 µM

**Q.** And the TGI (HOP-92 NSCLC)?
**A.** > 100 µM

**Q.** And the TGI (HS 578T breast)?
**A.** > 100 µM

**Q.** And the TGI (HT29 colon)?
**A.** > 100 µM

**Q.** And the TGI (IGROV1 ovarian)?
**A.** > 100 µM

**Q.** What about the TGI (K-562 leukemia) of the same molecule?
**A.** > 100 µM

**Q.** And the TGI (KM12 colon)?
**A.** > 100 µM

**Q.** What about the TGI (LOX IMVI melanoma) of the same molecule?
**A.** > 100000 nM

**Q.** What about the TGI (M14 melanoma) of the same molecule?
**A.** > 100 µM

**Q.** And the TGI (MALME-3M melanoma)?
**A.** > 100 µM

**Q.** And the TGI (MCF7 breast)?
**A.** > 100 µM

**Q.** What about the TGI (MDA-MB-231 breast) of the same molecule?
**A.** > 100 µM

**Q.** And the TGI (MDA-MB-435)?
**A.** > 100000 nM

**Q.** What about the TGI (MDA-N) of the same molecule?
**A.** > 100000 nM

**Q.** What about the TGI (MOLT-4 leukemia) of the same molecule?
**A.** > 100000 nM

**Q.** And the TGI (NCI-H226 lung)?
**A.** > 100 µM

**Q.** What about the TGI (NCI-H23 lung) of the same molecule?
**A.** > 100 µM

**Q.** What about the TGI (NCI-H460 lung) of the same molecule?
**A.** > 100 µM

**Q.** What about the TGI (NCI/ADR-RES ovarian) of the same molecule?
**A.** > 100000 nM

**Q.** What about the TGI (OVCAR-3 ovarian) of the same molecule?
**A.** > 100 µM

**Q.** And the TGI (OVCAR-4 ovarian)?
**A.** > 100000 nM

**Q.** What about the TGI (OVCAR-5 ovarian) of the same molecule?
**A.** > 100 µM

**Q.** What about the TGI (OVCAR-8 ovarian) of the same molecule?
**A.** > 100 µM

**Q.** What about the TGI (PC-3 prostate) of the same molecule?
**A.** > 100 µM

**Q.** What about the TGI (RPMI-8226 leukemia) of the same molecule?
**A.** > 100 µM

**Q.** What about the TGI (SF-295 CNS) of the same molecule?
**A.** > 100 µM

**Q.** And the TGI (SK-MEL-2 melanoma)?
**A.** > 100 µM

**Q.** And the TGI (SK-MEL-28 melanoma)?
**A.** > 100 µM

**Q.** And the TGI (SK-MEL-5 melanoma)?
**A.** > 100 µM

**Q.** What about the TGI (SK-OV-3 ovarian) of the same molecule?
**A.** > 100 µM

**Q.** What about the TGI (SN12C renal) of the same molecule?
**A.** > 100 µM

**Q.** And the TGI (SNB-19 CNS)?
**A.** > 100 µM

**Q.** And the TGI (SR leukemia)?
**A.** > 100 µM

**Q.** And the TGI (SW-620 colon)?
**A.** > 100 µM

**Q.** And the TGI (T-47D breast)?
**A.** > 100 µM

**Q.** And the TGI (TK-10 renal)?
**A.** > 100 µM

**Q.** What about the TGI (U251 CNS) of the same molecule?
**A.** > 100 µM

**Q.** And the TGI (UACC-257 melanoma)?
**A.** > 100 µM

**Q.** And the TGI (UACC-62 melanoma)?
**A.** > 100 µM

**Q.** What about the TGI (UO-31 renal) of the same molecule?
**A.** > 100000 nM
